From patent publication US20130065866A1, “DENTINAL DRUG DELIVERY COMPOSITION AND SCREENING METHOD” (UNIVERSITY OF MEDICINE AND DENTISTRY OF NEW JERSEY, priority 2009, published 2013)

Assays:
Format in all cases: cell-based, murine
[1] = tested on: LPS-evoked NO production in RAW cells; assay: Direct effect on NO production in RAW cells; settings: for reduction of spontaneous NO production: absence of LPS stimulation; for inhibition of LPS-evoked NO production: direct treatment
Text: (§1) After the one or more time intervals (e.g., one or more minutes, hours, or days), the diffusate is collected and tested for activity against an isolated dental pulp cell or isolated population of dental pulp cells. An isolated pulpal cell or population of dental pulp cells refers to cells that are removed from their native environment (i.e., the dental pulp). The isolated cells can be cultured primary cells or cultured cell line and include, but are not limited to fibroblasts, odontoblasts, histiocytes, macrophage, granulocytes, mast cells or plasma cells. Exemplary cell lines include, but are not limited to the murine macrophage cell line, RAW 264.7; immortalized mouse odontoblast cell line, MDPC-23; and the murine fibroblast cell line, 3T3.
(§2) As indicated, in some embodiments it is determined whether the diffusate contains a sufficient amount of test agent to inhibit or decrease the expression or activity of at least one inflammatory mediator of the dental pulp cell. In accordance with this embodiment, the isolated pulpal cell or population of dental pulp cells can be challenged with an inflammation-provoking stimulus (e.g., Lipopolysaccharide (LPS), N-formyl-methionyl-leucyl-phenylalanine, or phorbol myristate acetate) either before or after being contacted with the diffusate, so that the effect of the drug diffusing through the dentin barrier on inflammatory mediator production is assessed.
(§3) Prostaglandins such as PGE2 and nitric oxide (NO) are inflammatory mediators that are generated in injured tissue and influence vascular tissues, nociceptive nerve endings and immune cells. For example, exposure of immune and other cells to bacterial toxins such as LPS evokes production of PGE2 and NO. Other known mediators of inflammation include, but are not limited to, bradykinin, histamine, leukotrienes (Bd, Cd, Dd, Ed) IL-8, and neutrophil and macrophage lysosomal enzymes. The effect of test agents on the expression or activity of one or more of the above-referenced inflammatory mediators can be determined by conventional methods. For example, mRNA expression can be determined by dot blot, northern blot, or reverse transcriptase (RT)-PCR; protein expression can be determined by western blot or ELISA analysis; and NO production can be determined using a Griess reaction assay (e.g., EMSNOTOT kit) or ozone-based chemiluminescence assay.
The direct effect of drugs and lipids on inflammatory mediator production in RAW cells was determined. […] Measurable amounts of NO were produced in the absence of LPS stimulation (˜15 μM).

[2] = tested on: LPS-evoked PGE2 production in RAW cells; assay: Direct effect on LPS-evoked PGE2 production in RAW cells; settings: direct treatment
Text: as §1, §2
as §3, with “For example, exposure of immune and other cells to bacterial toxins such as LPS evokes production of PGE2 and NO. Other known mediators of inflammation include, but are not limited to, bradykinin, histamine, leukotrienes (Bd, Cd, Dd, Ed) IL-8, and neutrophil and macrophage lysosomal enzymes.” left out, “assay. […]” for “assay.”

RAW cells = assay: Toxicity to cells in the RAW cell study; settings: levels used in this study
Protocol: The direct effect of drugs and lipids on inflammatory mediator production in RAW cells was determined.

[3] = tested on: PGE2 production in LPS-stimulated RAW cells; assay: Transdentinal diffusion; diffusate applied to LPS-stimulated RAW cells, PGE2; settings: 24 hours of diffusion through dentin; diffusate on RAW cells stimulated with LPS
Protocol: (§4) This screening method of the invention includes the steps of contacting a coronal surface of an isolated dentin sample with a test agent, incubating the test agent and dentin sample so that diffusate is formed on the pulpal side of the dentin sample, contacting an isolated dental pulp cell with the diffusate, and determining whether the diffusate contains a sufficient amount of test agent to act on a cell of the dental pulp. In one embodiment, it is determined whether the diffusate contains a sufficient amount of test agent to inhibit or decrease the expression or activity of at least one inflammatory mediator of the dental pulp cell (e.g., nociceptive nerve endings, blood vesicle cells or inflammatory cells).
(§5) The dentins sample can be isolated by conventional methods and used in combination with a commercially available two-chamber diffusion cell, wherein the partition separating the two chambers holds the dentin sample (e.g., a dentin disk) in an orientation so that the dentin tubules provide the only connection between the two chambers. See, e.g., Hanks, et al. (1993) J. Dent. Res. 72:931-938; and Puapichartdumrong, et al. (2003) Internatl. Endodont. J. 36:674-81. […]

[4] = tested on: LPS-evoked NO production in RAW cells; assay: Transdentinal diffusion; diffusate applied to LPS-stimulated RAW cells, NO; settings: 24 hours of diffusion through dentin; diffusate on RAW cells stimulated with LPS
Protocol: as §4, §5

| SMILES | reduction of spontaneous NO production [1] | inhibition of LPS-evoked NO production [1] | inhibition of LPS-evoked PGE2 production ([2]; compared to oleic acid) | reduction of LPS-evoked NO production ([1]; 0.5 mM and lower (0.05, 0.005, 0.0005 mM)) | reduction of LPS-evoked NO production ([1]; 5 mM) | toxicity to cells (RAW cells) | PGE2 production after diffusate application [3] | LPS-evoked NO production after diffusate application [4] | inhibition of LPS-evoked PGE2 production ([2]; 50 μM) | effect on LPS-evoked NO production ([1]; 50 μM) |
| --- | --- | --- | --- | --- | --- | --- | --- | --- | --- | --- |
| CC/C=C\C/C=C\C/C=C\C/C=C\C/C=C\C/C=C\CCC(=O)O [DHA, docosahexaenoic] | small (not statistically significant) reduction | inhibited NO production but to a lesser extent than aspirin | – | – | – | – | – | – | – | – |
| CC(=O)Oc1ccccc1C(=O)O [aspirin, acetylsalicyclic acid] | small (not statistically significant) reduction | effectively inhibited LPS-evoked NO production | effective inhibitors of LPS-evoked PGE2 production | did not significantly reduce LPS-evoked NO production | significantly reduced NO production | non-toxic to cells | significantly reduced | depressed | – | – |
| CC(C)Cc1ccc(C(C)C(=O)O)cc1 (centres unmarked) [ibuprofen] | – | did suppress NO production | effective inhibitors of LPS-evoked PGE2 production | – | – | – | significantly reduced | did not attenuate LPS-stimulated NO production | inhibited LPS-evoked PGE2 production | no effect on LPS-evoked NO production |
| CCCCCCCC/C=C\CCCCCCCC(=O)O [oleic acid] | – | not shared | – | – | – | – | – | – | – | – |
